The nature of data set [1]: refractive index (Na D-line) (dimensionless). As to conditions: 101.33 kPa, Liquid, Standard Abbe refractometry.
Data set [2] can be described thus: refractive index (Na D-line) (dimensionless); wn = mass fraction of the nth substance listed. Particulars: 95 kPa, Liquid, Standard Abbe refractometry.

This passage reports refractive index results from the NIST ThermoML archive (doi:10.1021/je100991y).

SMILES strings stand for the structures. ± gives the expanded uncertainty stated by the source.

As for `CCOP(=O)([O-])OCC.CCn1cc[n+](C)c1` [1-ethyl-3-methylimidazolium diethyl phosphate], the figures for the refractive index in data set [1] (298.2 K) and in data set [1] (313.2 K) were 1.4733 ± 0.0006 and 1.4691 ± 0.0006, respectively.
Consider `CCOS(=O)(=O)[O-].CCn1cc[n+](C)c1` [1-ethyl-3-methylimidazolium ethyl sulfate], for which the refractive index (commonly a measure of how strongly the sample bends light) in data set [1] (298.2 K) was found to be 1.4789 ± 0.0011; in data set [1] (313.2 K), 1.4745 ± 0.0011.
On to `Cc1cccc2c1sc1c(C)cccc12` [4,6-dimethyldibenzo[b,d]thiophene] + CCCCCCCCCCCC, for which the refractive index came to 1.4201 ± 0.0006 in data set [2] (298.2 K, w1 = 0.0037); 1.4206 ± 0.0006 in data set [2] (298.2 K, w1 = 0.0062); 1.421 ± 0.0006 in data set [2] (298.2 K, w1 = 0.0089); 1.4137 ± 0.0006 in data set [2] (313.2 K, w1 = 0.0037); 1.4141 ± 0.0006 in data set [2] (313.2 K, w1 = 0.0062); 1.4146 ± 0.0006 in data set [2] (313.2 K, w1 = 0.0089).
On to `CCCCCCCCCCCC` [dodecane], for which the refractive index in data set [1] (298.2 K) is on record as 1.4196 ± 0.0006; in data set [1] (313.2 K) it was 1.4131 ± 0.0006.
Consider `CCCCCCCCCCCC` [dodecane] + Cc1cccc2c1sc1c(C)cccc12, for which the refractive index in data set [2] (298.2 K, w2 = 0) stood at 1.4196 ± 0.0006; in data set [2] (313.2 K, w2 = 0) it was 1.4131 ± 0.0006.
